From patent US6613734B2, “Peptides-containing liposomal surfactants” (The Scripps Research Institute, priority 1988, dated 2003)
Values joined by “and” are separate entries in the source; they are usually repeats but may differ in a detail not shown here. Equal entries are not always repeated. Marks after values point to notes of the source that are not given here.

How the values were obtained:
[1] = system: fetal rabbit lung; assay: dynamic compliance, fetal rabbit model; assay type: in vivo; settings: single animal per line
Protocol: A subject polypeptide was first admixed with solvent as described in Example 3. […]
Surfactant was instilled in rabbit fetal lung by injection into the trachea from a single syringe of the following three components such that the components exit the syringe in the following order: (1) 0.05 ml air; (2) 0.1 ml of a synthetic surfactant prepared in Example 4A or either 2 mg of PL or 2 mg of native surfactant; and (3) 0.1 ml air.
From one syringe, a 0.1 ml aliquot of synthetic surfactant prepared as described in Example 4A (or 2 mg of NS or of PL), was instilled into the rabbit trachea as described above, followed by injection of 0.05 ml lactated Ringer's Solution and 0.2 ml air from a second syringe.
From one syringe, 0.1 ml of a synthetic surfactant prepared as described in Example 4A (or 2 mg of NS or of PL), 0.15 ml air, 0.1 ml saline, and 0.3 ml air were injected into the trachea as described above. Two subsequent aliquots of 0.3 ml air were given.
The surfactant activity of exemplary polypeptides of this invention was studied using the methods described in detail previously by Revak, et al, Am. Rev. Respir. Dis. 134: […] (1986), with the exceptions noted hereinbelow.
Twenty-seven day gestation fetal rabbits were delivered by hysterotomy and immediately injected with 0.05 ml Norcuron (Organon, Inc., N.J.) to prevent spontaneous breathing. The fetal rabbits were then weighed and a small cannula was inserted into the trachea by tracheotomy surfactant prepared as described above was then instilled into the fetal rabbit lung by one of the above instillation protocols.
Following instillation the rabbit was placed in a specially designed plethysmograph (containing a Celesco transducer) connected to a ventilator (Baby Bird, Baby Bird Corp., Palm Springs, Calif.) and the instilled lung was ventilated at a rate of 30 cycles per minute with a peak inspiratory pressure of 25 cm H2O, a positive end expiratory pressure of 4 cm H2O and an inspiratory time of 0.5 seconds. In some studies, dynamic compliance measurements were made at various times throughout the ventilation procedure. In others, static compliance measurements were made following ventilation.
Using the plethysmograph, dynamic compliance measurements were made at various times throughout a 60 minute ventilation period. […] Compliance was calculated by the formula below. [formula]
The above equation was solved with a multiple linear regression for C and R. The compliance (C) represents the elastic nature of the lungs and the resistance (R) represents the pressure necessary to overcome the resistance to the flow of gas into and out of the lungs.

[2] = pulsating bubble technique ("bubble assay" of Enhorning, Enhorning Surfactometer); assay type: physicochemical; settings: peptide 10% by weight of PL, 37° C., negative pressure, mean of 3; for Pressure Gradient 15″: 15 seconds; for Pressure Gradient 1′: 1 minute; for Pressure Gradient 5′: 5 minutes
Protocol: Measurements of surface pressure across an air-liquid interface (expressed in negative cm of H2O pressure) at minimal (γmin) bubble radius were determined at various times using the pulsating bubble technique described by Enhorning, J. Appl. Physiol. 43: 198-203 (1977).
Briefly, the Enhorning Surfactometer (Surfactometer International, Toronto, Ontario) measures the pressure gradient (ΔP) across a liquid-air interface of a bubble that pulsates at a rate of 20 cycles/min between a maximal (0.55 mm) and minimal (0.4 mm) radius. The bubble, formed in a 37° C., water-enclosed, 20-μl sample chamber, is monitored through a microscopic optic while the pressure changes are recorded on a strip chart recorder calibrated for 0 and −2 cm H2O.
Each of the surfactants identified in Table 5 was assayed for surfactant activity as evidenced by their ability to reduce surface tension in vitro using the “bubble assay” of Enhorning as described above.
After admixture with solvent, each peptide was admixed with phospholipids (PL), DPPC:PG, 3:1, in chloroform in a glass tube so that the amount of polypeptide added equaled one-tenth (10% by. weight) of the amount of PL added, to form a surfactant according to either method A, B or C.
Each of the surfactants was then assayed for surfactant activity as evidenced by their ability to reduce surface tension in vitro in the bubble assay performed as described above. The pressure gradient (ΔP) is a measure of surfactant activity in the polypeptide-PL third admixture which was determined using an Enhorning Surfactometer as described above. Measurements were obtained at time points of 15 seconds (15″), 1 minute (1′) and 5 minutes (5′) and are expressed as a mean of three independent measurements of the indicated polypeptide-PL admixture.

[3] = observation whether peptide/solvent admixture formed a solution or a suspension; assay type: physicochemical
Protocol: Each polypeptide was admixed with the indicated solvent at a concentration of 2.5 mg of polypeptide per ml of solvent. […] Those admixtures forming a suspension were further admixed by water bath sonication for 10 seconds to form a very fine suspension, sufficient for pipetting using glass pipettes.

[4] = system: fetal rabbit lung; assay: static compliance, fetal rabbit model; assay type: in vivo; settings: fetal rabbits, after 30 minutes of ventilation, instillation protocols 1 and 5 (FIGS. 2 and 3)
Protocol: A subject polypeptide was first admixed with solvent as described in Example 3. The resulting admixture was further admixed with phospholipid (PL) so that the amount of polypeptide added was either 3%, 7% or 10% by weight of the amount of PL added as indicated below.
Fetal rabbits were treated by injection into the trachea of a 0.1 ml solution that contained either a synthetic surfactant prepared in Example 4A or either 2 mg of native surfactant prepared as described in Example 1 of U.S. Pat. No. 5,260,273 (incorporated by reference herein) or 2 mg PL.
Fetal rabbits were treated by injection into the trachea from a single syringe the following four components such that the four components exit the syringe upon injection in the order listed: (1) 0.2 ml solution that contains either a synthetic surfactant prepared in Example 4A or either 4 mg of native surfactant, or 4 mg PL; (2) a 0.15 ml volume of air; (3) a 0.1 ml normal saline solution; and (4) a 0.3 ml volume of air. The above injection was then repeated 15 minutes after the first injection. […]
Static compliance measurements were made after 30 minutes of ventilation. […] The volume of air required to reach static pressures of 5, 10, 15, 20, 25 and 30 cm H2O was measured during both inflation and deflation phases to generate static pressure to volume curves as a measure of static compliance.

| Sequence | Dynamic Compliance, 30 minutes after surfactant instillation ([1]; 5% peptide to PL, Protocol 3) | Dynamic Compliance, 60 minutes after surfactant instillation ([1]; 5% peptide to PL, Protocol 3) | Dynamic Compliance, 30 minutes after surfactant instillation ([1]; 10% peptide to PL, Protocol 2) | Dynamic Compliance, 60 minutes after surfactant instillation ([1]; 10% peptide to PL, Protocol 2) | Pressure Gradient 15″ ([2]; PL (DPPC:PG 3:1) 4 mg/ml) | Pressure Gradient 1′ ([2]; PL (DPPC:PG 3:1) 4 mg/ml) | Pressure Gradient 5′ ([2]; PL (DPPC:PG 3:1) 4 mg/ml) | Pressure Gradient 15″ ([2]; PL (DPPC:PG 3:1) 10 mg/ml) | Pressure Gradient 1′ ([2]; PL (DPPC:PG 3:1) 10 mg/ml) | Pressure Gradient 5′ ([2]; PL (DPPC:PG 3:1) 10 mg/ml) | Dynamic Compliance, 10 minutes after surfactant instillation ([1]; 10% peptide to PL, Protocol 4) | Dynamic Compliance, 20 minutes after surfactant instillation ([1]; 10% peptide to PL, Protocol 4) | Dynamic Compliance, 30 minutes after surfactant instillation ([1]; 10% peptide to PL, Protocol 4) | Dynamic Compliance, 40 minutes after surfactant instillation ([1]; 10% peptide to PL, Protocol 4) | Dynamic Compliance, 50 minutes after surfactant instillation ([1]; 10% peptide to PL, Protocol 4) | Dynamic Compliance, 60 minutes after surfactant instillation ([1]; 10% peptide to PL, Protocol 4) | also measured |
| --- | --- | --- | --- | --- | --- | --- | --- | --- | --- | --- | --- | --- | --- | --- | --- | --- | --- |
| RYSVILLDTLLGRMLPQLVCRLVLRCSMDD [p52-81] | 517 ml air/cm H2O (g body weight × 10^6) and 434 ml air/cm H2O (g body weight × 10^6) | 226* ml air/cm H2O (g body weight × 10^6) and 55* ml air/cm H2O (g body weight × 10^6) | 195 ml air/cm H2O (g body weight × 10^6) and 43 ml air/cm H2O (g body weight × 10^6) | 1,243 ml air/cm H2O (g body weight × 10^6) and 1,690 ml air/cm H2O (g body weight × 10^6) | 1.33 cm of H2O | 1.19 cm of H2O | 0.96 cm of H2O | – | – | – | – | – | – | – | – | – | Admixture Formed ([3]; 2.5 μg of peptide per μl of solvent, solvent methanol:H2O): suspension; Admixture Formed ([3]; 2.5 mg of polypeptide per ml of solvent, solvent 67% DMF 33% chloroform): solution |
| FPIPLPYCWLCRALI [p1-15] | – | – | – | – | 0.94 cm of H2O | 0.82 cm of H2O | 0.48 cm of H2O | – | – | – | – | – | – | – | – | – | lung compliance measured by static compliance, compared with PL alone [4]: did not produce improved lung compliance over PL alone; Admixture Formed ([3]; 2.5 μg of peptide per μl of solvent, solvent n-propyl alcohol): suspension; Admixture Formed ([3]; 2.5 mg of polypeptide per ml of solvent, solvent N-propanol): suspension |
| RVVPLVAGGICQCLAERYSVILLDTLLGRMLPQLVCRLVLRCSMDD [p36-81] | 255 ml air/cm H2O (g body weight × 10^6) and 245 ml air/cm H2O (g body weight × 10^6) | 146* ml air/cm H2O (g body weight × 10^6) and 291 ml air/cm H2O (g body weight × 10^6) | 154 ml air/cm H2O (g body weight × 10^6) and 252 ml air/cm H2O (g body weight × 10^6) | 1,162 ml air/cm H2O (g body weight × 10^6) and 623 ml air/cm H2O (g body weight × 10^6) | – | – | – | 0.90 cm of H2O | 0.87 cm of H2O | 0.79 cm of H2O | – | – | – | – | – | – | Admixture Formed ([3]; 2.5 mg of polypeptide per ml of solvent, solvent 50% chloroform 0% methanol): suspension |
| ERYSVILLDTLLGRMLPQLVCRLVLR [p51-76] | – | – | – | – | – | – | – | 0.99 cm of H2O | 0.91 cm of H2O | 0.42 cm of H2O | 33 ml air/cm H2O (g body weight × 10^6) and 10 ml air/cm H2O (g body weight × 10^6) and 15 ml air/cm H2O (g body weight × 10^6) | 22 ml air/cm H2O (g body weight × 10^6) and 11 ml air/cm H2O (g body weight × 10^6) and 36 ml air/cm H2O (g body weight × 10^6) | 56 ml air/cm H2O (g body weight × 10^6) and 186 ml air/cm H2O (g body weight × 10^6) and 109 ml air/cm H2O (g body weight × 10^6) | 87 ml air/cm H2O (g body weight × 10^6) and 358 ml air/cm H2O (g body weight × 10^6) and 241 ml air/cm H2O (g body weight × 10^6) | 124 ml air/cm H2O (g body weight × 10^6) and 141 ml air/cm H2O (g body weight × 10^6) and 264 ml air/cm H2O (g body weight × 10^6) | 85 ml air/cm H2O (g body weight × 10^6) and 144* ml air/cm H2O (g body weight × 10^6) and 301 ml air/cm H2O (g body weight × 10^6) | Admixture Formed ([3]; 2.5 mg of polypeptide per ml of solvent, solvent 37% chloroform 63% methanol): solution |
| ERYSVILLDTLLGRMLPQLVCRLVLRCSMD [p51-80] | – | – | – | – | – | – | – | 0.92 cm of H2O | 0.89 cm of H2O | 0.48 cm of H2O | 17 ml air/cm H2O (g body weight × 10^6) and 76 ml air/cm H2O (g body weight × 10^6) and 23 ml air/cm H2O (g body weight × 10^6) | 41 ml air/cm H2O (g body weight × 10^6) and 94 ml air/cm H2O (g body weight × 10^6) and 71 ml air/cm H2O (g body weight × 10^6) | 52 ml air/cm H2O (g body weight × 10^6) and 149 ml air/cm H2O (g body weight × 10^6) and 130 ml air/cm H2O (g body weight × 10^6) | 78 ml air/cm H2O (g body weight × 10^6) and 149 ml air/cm H2O (g body weight × 10^6) and 156 ml air/cm H2O (g body weight × 10^6) | 99 ml air/cm H2O (g body weight × 10^6) and 217 ml air/cm H2O (g body weight × 10^6) and 182 ml air/cm H2O (g body weight × 10^6) | 208 ml air/cm H2O (g body weight × 10^6) and 308 ml air/cm H2O (g body weight × 10^6) and 109* ml air/cm H2O (g body weight × 10^6) | Admixture Formed ([3]; 2.5 mg of polypeptide per ml of solvent, solvent 45% chloroform 55% methanol): solution |
